Experimental data: US20230398049A1, “TETRAPEPTIDES, COMPOSITIONS COMPRISING THEM, AND THEIR COSMETIC USE” (Sederma, priority 2020, published 2023)
Peptide text beside a SMILES is read from it. * marks the point of attachment. Palmitoyl = CCCCCCCCCCCCCCCC(=O)*

Legend:
Type in all cases: cell-based
Fibrillin 1 = assay: Immunofluorescence assay of Fibrillin 1 formation by normal human fibroblasts; conditions: NHF, five day incubation
Protocol: Normal human fibroblasts (NHF) are cultured for at least 24 hours in fibroblast growth medium containing serum. Once confluence was reached, the cells are seeded and the actives and corresponding controls diluted in a culture medium are added. At the end of a five day incubation period, the supernatant is removed, the cells are washed with PBS and fixed. The cells are then incubated with the primary Fibrillin 1 monoclonal antibody (11C1.3) (Thermo Fisher) diluted in blocking buffer at a concentration of 1:200. The cells are incubated. The primary antibody is removed and the cells are washed with PBS. The secondary antibody was added at a dilution of 1:1000 in blocking buffer, then removed and the cells are washed with PBS. The formation of Fibrillin 1 by the cells is visualized using a fluorescence microscope. The obtained images are analyzed using an image processing software assigning a numerical value to the coverage density.

Decorine [1] = assay: ELISA assay of decorin synthesis by normal human fibroblasts; conditions: NHF, 72 h contact, ELISA on supernatant
Protocol: (§1) Normal human fibroblasts (NHF) in culture are brought into contact with the products to be tested or their excipient (negative control) for 72 h. At the end of the contact, the culture supernatants are removed, and the syntheses of the dermal macromolecules are estimated by ELISA assays. An estimate of cell viability is carried out by Hoechst assay to weight the obtained data. Collagen I is evaluated via the PIP assay (carboxy-terminal propeptide of procollagen type I) which is a peptide fragment resulting from the enzymatic degradation of procollagen when the latter is excreted outside the fibroblast (therefore in the culture medium where the assay is carried out).

Collagen I (PIP) = assay: ELISA assay of collagen I synthesis (PIP) by normal human fibroblasts; conditions: NHF, 72 h contact, ELISA on supernatant
Protocol: as §1

Fibronectine = assay: ELISA assay of fibronectin synthesis by normal human fibroblasts; conditions: NHF, 72 h contact, ELISA on supernatant
Protocol: as §1

Hyaluronic acid = assay: ELISA assay of hyaluronic acid synthesis by normal human fibroblasts; conditions: NHF, 72 h contact, concentrations of 2 to 3 ppm, ELISA on supernatant
Protocol: as §1

Collagen IV = assay: ELISA assay of collagen IV synthesis by normal human fibroblasts; conditions: NHF, 72 h contact, concentrations of 2 to 3 ppm, ELISA on supernatant
Protocol: as §1

Nidogen-1 = assay: LC-MS/MS analysis of secretome and matrisome of human dermal fibroblasts: Nidogen-1; conditions: HDF, seven days culture, pooled secretome and matrisome, n=3, p<0.05
Protocol: (§2) Protocol Human dermal fibroblasts (HDF) are cultured with or without the peptide according to the invention (control) in n=3. The cells are cultured normally for five days in serum supplemented medium, then for two additional days in serum-free medium (culture of seven days in total). The cellular medium (secretome) is collected and the matrix separated from the cells with EDTA. The secretome and matrisome are kept for LC-MS/MS analysis. The cells are saved for future analysis. The secretome and matrisome compartments are pooled and processed as single samples.
(§3) Mass spectrometry is used to determine the total amount of certain proteins identified in the secretome and matrisome in the presence of the peptide of the invention and which are absent from the control following the day 7 of incubation. The proteins are denatured (in urea), reduced (in dithiothreitol) and mechanically dissociated (using ultrasound) prior to overnight digestion with the SMART Digest™ Trypsin Kit (Thermo Fisher).
(§4) The samples are analyzed on an UltiMate® 3000 rapid separation liquid chromatograph coupled to a Q Exactive™ Quadrupole-Orbitrap™ hybrid mass spectrometer: 200 ng injected at an analysis time of 90 minutes per sample.
(§5) Protein quantification is performed using Progenesis QI and protein identification using Mascot v2.5.1. Normalized protein concentrations are compared between the peptide and the control. […]

RAD23A = assay: LC-MS/MS analysis of secretome and matrisome of human dermal fibroblasts: RAD23A; conditions: HDF, seven days culture, pooled secretome and matrisome, n=3, 0.05<p<0.1
Protocol: as §2, §3, §4, §5

Decorine [2] = assay: LC-MS/MS analysis of secretome and matrisome of human dermal fibroblasts: Decorine; conditions: HDF, seven days culture, pooled secretome and matrisome, n=3, 0.05<p<0.1
Protocol: as §2, §3, §4, §5

SOD3 = assay: LC-MS/MS analysis of secretome and matrisome of human dermal fibroblasts: SOD3; conditions: HDF, seven days culture, pooled secretome and matrisome, n=3, 0.05<p<0.1
Protocol: as §2, §3, §4, §5

| Molecule | Fibrillin 1 formation (coverage density), change vs control (Fibrillin 1; 10 ppm) | Decorine synthesis, change vs excipient control (Decorine [1]; concentrations of 5 to 15 ppm) | Collagen I (PIP) synthesis, change vs excipient control (Collagen I (PIP); concentrations of 5 to 15 ppm) | Fibronectine synthesis, change vs excipient control (Fibronectine; concentrations of 5 to 15 ppm) | Hyaluronic acid synthesis, change vs excipient control (Hyaluronic acid) | Collagen IV synthesis, change vs excipient control (Collagen IV) | Fibrillin 1 formation (coverage density), change vs control (Fibrillin 1; 4 ppm) | Nidogen-1 protein amount vs control (Nidogen-1) | RAD23A protein amount vs control (RAD23A) | Decorine protein amount vs control (Decorine [2]) | Decorine synthesis, change vs excipient control (Decorine [1]; concentrations of 2 to 3 ppm) | SOD3 protein amount vs control (SOD3) | Collagen I (PIP) synthesis, change vs excipient control (Collagen I (PIP); concentrations of 2 to 3 ppm) | Fibronectine synthesis, change vs excipient control (Fibronectine; concentrations of 2 to 3 ppm) |
| --- | --- | --- | --- | --- | --- | --- | --- | --- | --- | --- | --- | --- | --- | --- |
| CCCCCCCCCCCCCCCC(=O)N[C@@H](CC(C)C)C(=O)N[C@@H](CCCCN)C(=O)N[C@@H](CC(C)C)C(=O)N[C@@H](CCC(=O)O)C(=O)O [Pal-LKLE-OH, palmitoyl-leucyl-lysyl-leucyl-glutamic acid] (Palmitoyl-LKLE-OH) | +81% (p < 0.05) | +21% | +81% | +48% | – | – | – | – | – | – | – | – | – | – |
| Pal-ELED-OH: N-palmitoylated tetrapeptide Glu-Leu-Glu-Asp, free C-terminal acid; ELED is a fragment of Biglycan (Palmitoyl-ELED-OH; SMILES CCCCCCCCCCCCCCCC(=O)N[C@@H](CCC(=O)O)C(=O)N[C@@H](CC(C)C)C(=O)N[C@@H](CCC(=O)O)C(=O)N[C@@H](CC(=O)O)C(=O)O) | – | – | – | – | +28% | +42% | +97% (p < 0.05) | stimulation | stimulation | stimulation | +69% | stimulation | +42% | +70% |
